Data on ten molecules can be found in patent US4232037A, “2,6-Dialkoxybenzamides, intermediates, pharamaceutical compositions and methods for treatment of psychotic disorders” (priority 1978, dated 1980).

Data set [1] relates to apomorphine induced stereotypies. The experiment in a line: Block of apomorphine-induced stereotypies in rats (0-3 scale scoring). Format: in vivo, Male Sprague-Dawley rats. As to conditions: for ED50: Rattus norvegicus, 1 h; for Stereotypies ED50: rat, hydrochloride, 60 min. Here is the method:
Male Sprague-Dawley rats weighing 225-275 g were used. […] The compounds were injected 60 minutes prior to apomorphine hydrochloride (1 mg/kg) which was injected subcutaneously into the neck. […] Directly after injection, the animals were placed in the cages, one in each cage. Scoring of the stereotypies were performed by two separate methods. The first scoring system was a modified version of the system introduced by Costall and Naylor (1973). […] Chewing, biting and | licking. In the second system the number of animals displaying hyperactivity caused by apomorphine were scored. […] Saline controls were always run simultaneously.

Data set [2] concerns apomorphine induced hyperactivity. The data set can be described thus: Block of apomorphine-induced hyperactivity in rats (number of animals displaying hyperactivity). Format: in vivo, Male Sprague-Dawley rats. The note with it: for ED50: Rattus norvegicus, 1 h. Here is the method: Male Sprague-Dawley rats weighing 225-275 g were used. […] The compounds were injected 60 minutes prior to apomorphine hydrochloride (1 mg/kg) which was injected subcutaneously into the neck.
Directly after injection, the animals were placed in the cages, one in each cage. Scoring of the stereotypies were performed by two separate methods. The first scoring system was a modified version of the system introduced by Costall and Naylor (1973). The strength of the stereotypy was scored on a 0-3 scale as follows:
In the second system the number of animals displaying hyperactivity caused by apomorphine were scored. […] Saline controls were always run simultaneously. ED50 's are in the first scoring system (0-3 scale), the doses which reduce the strength of the stereotypies by 50% over the observation period of 60 minutes. ED50 's of the second scoring system are the doses which reduce the number of animals showing hyperactivity by 50% over the observation period of 60 minutes.

Data set [3] deals with DA receptors in the brain. The data set can be described thus: Apomorphine antagonism in rats (stereotypies and hyperactivity together, results in words). Format: in vivo, Male Sprague-Dawley rats. As to conditions: rat, p.o., Table 3.
The conditions of data set [4]: experimental animals; cited from earlier work.
The conditions of data set [5]: in vivo; cited from earlier work.
Setting [6] is: ip, i.p., 60 min before apomorphine hydrochloride 1 mg/kg s.c., 60 min observation, read-out: Stereotypies ED50.
Where [7] appears, read: po, p.o., same test system, read-out: Stereotypies ED50.
[8] abbreviates: po, p.o., same test system, read-out: Stereotypies ED50 (in parentheses, mg/kg).
Where [9] appears, read: ip, i.p., 60 min before apomorphine hydrochloride 1 mg/kg s.c., 60 min observation, read-out: Hyperactivity ED50.
The mark [10] stands for this setting: po, p.o., same test system, read-out: Hypractivity ED50.
[11] abbreviates: po, p.o., same test system, read-out: Hypractivity ED50 (in parentheses, mg/kg).
Setting [12] is: i.p., 60 min before apomorphine hydrochloride 1 mg/kg s.c., 60 min observation.

Counter-ions that a name gives are not always drawn. Like-named read-outs stand apart in the source and are kept apart here. Some results are limits rather than exact numbers.

For the molecule `CCN1CCCC1CNC(=O)c1c(OC)ccc(Br)c1OC.Cl` (racemic) [Example 7, N-Ethyl-2-(3-bromo-2,6-dimethoxybenzamidomethyl)pyrrolidine hydrochloride], the ED50 amounted to 23 µmol/kg in data set [1] (setting [6]); 47 µmol/kg in data set [1] (setting [7]); 19 mg/kg in data set [1] (setting [8]); 11 µmol/kg in data set [2] (setting [9]); 17 µmol/kg in data set [2] (setting [10]); 7 mg/kg in data set [2] (setting [11]).

For `CCN1CCCC1CNC(=O)c1c(OC)ccc(Cl)c1OC` (racemic) [Example 8, N-Ethyl-2-(3-chloro-2,6-dimethoxybenzamidomethyl)pyrrolidine hydrochloride], the ED50 came to 47 µmol/kg in data set [1] (setting [6]) and 30 µmol/kg in data set [2] (setting [9]).

As to `CCN1CCCC1CNC(=O)c1c(OC)c(Br)cc(Br)c1OC.Cl` (racemic) [Example 9, N-Ethyl-2-(3,5-dibromo-2,6-dimethoxybenzamidomethyl) pyrrolidine hydrochloride], the ED50 in data set [1] (setting [6]) is 5.3 µmol/kg; in data set [1] (setting [7]) it was 8.2 µmol/kg; in data set [1] (setting [8]) it was 4 mg/kg; in data set [2] (setting [9]) it was 1.8 µmol/kg; in data set [2] (setting [10]), 5.5 µmol/kg; in data set [2] (setting [11]), 2.7 mg/kg.

On to `CCN1CCCC1CNC(=O)c1c(OC)c(Cl)cc(Cl)c1OC` (racemic) [Example 10, N-Ethyl-2-(3,5-dichloro-2,6-dimethoxybenzamidomethyl) pyrrolidine], for which the ED50 came out at 5.8 µmol/kg in data set [1] (setting [6]) and 3 µmol/kg in data set [2] (setting [9]).

Consider `CCN1CCCC1CNC(=O)c1c(OC)c(Cl)cc(Br)c1OC` (racemic) [Example 11, N-Ethyl-2-(3-bromo-5-chloro-2,6-dimethoxybenzamidomethyl) pyrrolidine], for which the ED50 came to 6.2 µmol/kg in data set [1] (setting [6]) and 3.9 µmol/kg in data set [2] (setting [9]).

Consider `CCN1CCCC1CNC(=O)c1c(OC)c(Br)cc(Br)c1OC` (single isomer, unassigned) [Example 12, N-Ethyl-2-(3,5-dibromo-2,6-dimethoxybenzamidomethyl) pyrrolidine], for which the values for the ED50 in data set [1] (setting [6]) and in data set [2] (setting [9]) were more than 178 µmol/kg and approximately 11 µmol/kg, respectively.

Take `CCN1CCCC1CNC(=O)c1c(OC)c(Br)cc(Br)c1OC` (single isomer, unassigned) [Example 13, N-Ethyl-2-(3,5-dibromo-2,6-dimethoxybenzamidomethyl) pyrrolidine hydrochloride]: the figures for the ED50 in data set [1] (setting [6]) and in data set [2] (setting [9]) were 3.3 µmol/kg and 0.33 µmol/kg, respectively.

For the molecule `CCN1CCCC1CNC(=O)c1c(OC)ccc(Br)c1OC.Cl` (single isomer, unassigned) [Example 14, N-Ethyl-2-(3-bromo-2,6-dimethoxybenzamidomethyl) pyrrolidine hydrochloride], the “Stereotypies ED50” value in data set [1] (setting [12]) came to 5.6 µmol/kg.

For `CCN1CCCC1CNC(=O)c1c(OC)ccc(Br)c1OC.Cl` (single isomer, unassigned) [Example 15, N-Ethyl-2-(3-bromo-2,6-dimethoxybenzamidomethyl) pyrrolidine hydrochloride], the “Stereotypies ED50” value in data set [1] (setting [12]) was more than 196 µmol/kg. In addition, the “Hyperactivity ED50” value in data set [2] (rat, i.p., 60 min before apomorphine hydrochloride 1 mg/kg s.c., 60 min observation, hydrochloride, 60 min) was ~ 123 μmol/kg.

Take `CCN1CCCC1CNC(=O)c1cc(S(N)(=O)=O)ccc1OC` (stereo not shown) [Sulpiride, reference compound]: the ED50 in data set [1] (setting [6]) was 293 µmol/kg; in data set [1] (setting [7]), more than 586 µmol/kg; in data set [1] (setting [8]), more than 200 mg/kg; in data set [2] (setting [9]) it was 50 µmol/kg; in data set [2] (setting [10]), more than 586 µmol/kg; in data set [2] (setting [11]), more than 200 mg/kg. Besides, in data set [3], the “activity after oral administration” value is “lost all activity”. Moreover, in data set [4], the catalepsy result is on record as “weak catalepsy”. The extrapyramidal side effects entry in data set [5] is recorded as “weak extrapyramidal side effects”.
